Measurements from patent US9211310B2, “Use of a Chinese medicine composition in preparing medicaments for treating secondary prevention of myocardial infarction” (TASLY PHARMACEUTICAL GROUP CO., LTD, priority 2010, dated 2015).

Tested on: patients after acute myocardial infarction
Test: Life quality, Seattle Angina Questionnaire (SAQ), same clinical trial
Format: in vivo, human
Settings: FAS
Description: 3508 patients who were in accordance with the diagnostic standards of AMI for 28 days to 2 years and differentiated as Qi deficiency and blood stagnation syndrome by TCM were studied. 0.5 g Chinese medicine composition prepared by the method of EXAMPLE 1 (Coded as QSYQ) was administrated half an hour after meal, 3 times per day.
There were 19 questions in the Seattle angina questionnaire (SAQ), including 5 parts: physical limitation (PL), anginal stability (AS), anginal frequency (AF), treatment satisfaction (TS) and disease perception (DP). After being given necessary explanation by doctors, the questions were answered independently by patients.
They included the overall survival time, angina pectoris score, TCM symptom score and life quality score, where angina pectoris score, TCM symptom score and life quality score were evaluated at randomization, in 1st, 3rd, 6th, 9th, 12th month after treatment and 18th month after follow-up.
All evaluation results of SAQ were described during the period of observation, and Wilcoxon rank sum test was used for inter-group comparison.
The evaluation results in the SAQ were depicted in different observations, and inter-group comparison was tested by Wilcoxon Rank-sum test.

CC(=O)Oc1ccccc1C(=O)O [Control group, aspirine]
SAQ 5th question, ≧4 times per day: % of patients (12 months after treatment): (0.80%) | SAQ 5th question, ≧4 times per day: number of patients (12 months after treatment): 14 | SAQ 6th question, Dissatisfied: % of patients (12 months after treatment): (0.29%) | SAQ 6th question, Dissatisfied: number of patients (12 months after treatment): 5 | SAQ 6th question, Highly satisfied: % of patients (12 months after treatment): (25.86%) | SAQ 6th question, Highly satisfied: number of patients (12 months after treatment): 451 | SAQ 6th question, Mostly dissatisfied: % of patients (12 months after treatment): (1.55%) | SAQ 6th question, Mostly dissatisfied: number of patients (12 months after treatment): 27 | SAQ 6th question, Mostly satisfied: % of patients (12 months after treatment): (60.61%) | SAQ 6th question, Mostly satisfied: number of patients (12 months after treatment): 1057 | SAQ 6th question, Partly satisfied: % of patients (12 months after treatment): (11.70%) | SAQ 6th question, Partly satisfied: number of patients (12 months after treatment): 204 | SAQ 7th question, Dissatisfied: % of patients (12 months after treatment): (0.11%) | SAQ 7th question, Dissatisfied: number of patients (12 months after treatment): 2 | SAQ 7th question, Highly satisfied: % of patients (12 months after treatment): (29.56%) | SAQ 7th question, Highly satisfied: number of patients (12 months after treatment): 515 | SAQ 7th question, Mostly dissatisfied: % of patients (12 months after treatment): (0.75%) | SAQ 7th question, Mostly dissatisfied: number of patients (12 months after treatment): 13 | SAQ 7th question, Mostly satisfied: % of patients (12 months after treatment): (59.82%) | SAQ 7th question, Mostly satisfied: number of patients (12 months after treatment): 1042 | SAQ 7th question, Partly satisfied: % of patients (12 months after treatment): (9.76%) | SAQ 7th question, Partly satisfied: number of patients (12 months after treatment): 170 | SAQ Question 1-1 Mildly limited, number of patients (12 months after treatment): 15 | SAQ Question 1-1 Mildly limited, percent of patients (12 months after treatment): (0.86%) | SAQ Question 1-1 Moderately limited, number of patients (12 months after treatment): 4 | SAQ Question 1-1 Moderately limited, percent of patients (12 months after treatment): (0.23%) | SAQ Question 1-1 Not limited, number of patients (12 months after treatment): 1659 | SAQ Question 1-1 Not limited, percent of patients (12 months after treatment): (95.13%) | SAQ Question 1-1 Other reasons, number of patients (12 months after treatment): 4 | SAQ Question 1-1 Other reasons, percent of patients (12 months after treatment): (0.23%) | SAQ Question 1-1 Severely limited, number of patients (12 months after treatment): 1 | SAQ Question 1-1 Severely limited, percent of patients (12 months after treatment): (0.06%) | SAQ Question 1-1 Slightly limited, number of patients (12 months after treatment): 61 | SAQ Question 1-1 Slightly limited, percent of patients (12 months after treatment): (3.50%) | SAQ Question 1-2 Mildly limited, number of patients (12 months after treatment): 18 | SAQ Question 1-2 Mildly limited, percent of patients (12 months after treatment): (1.03%) | SAQ Question 1-2 Moderately limited, number of patients (12 months after treatment): 6 | SAQ Question 1-2 Moderately limited, percent of patients (12 months after treatment): (0.34%) | SAQ Question 1-2 Not limited, number of patients (12 months after treatment): 1647 | SAQ Question 1-2 Not limited, percent of patients (12 months after treatment): (94.44%) | SAQ Question 1-2 Other reasons, number of patients (12 months after treatment): 6 | SAQ Question 1-2 Other reasons, percent of patients (12 months after treatment): (0.34%) | SAQ Question 1-2 Severely limited, number of patients (12 months after treatment): 0 | SAQ Question 1-2 Severely limited, percent of patients (12 months after treatment): (0.00%) | SAQ Question 1-2 Slightly limited, number of patients (12 months after treatment): 67 | SAQ Question 1-2 Slightly limited, percent of patients (12 months after treatment): (3.84%) | SAQ Question 1-6: Mildly limited, patients (%) (12 months after treatment): (14.93%) | SAQ Question 1-6: Moderately limited, patients (%) (12 months after treatment): (9.70%) | SAQ Question 1-6: Not limited, patients (%) (12 months after treatment): (40.47%) | SAQ Question 1-6: Other reasons, patients (%) (12 months after treatment): (0.86%) | SAQ Question 1-6: Severely limited, patients (%) (12 months after treatment): (2.58%) | SAQ Question 1-6: Slightly limited, patients (%) (12 months after treatment): (31.46%) | SAQ Question 1-7: Mildly limited, patients (%) (12 months after treatment): (20.46%) | SAQ Question 1-7: Moderately limited, patients (%) (12 months after treatment): (11.10%) | SAQ Question 1-7: Not limited, patients (%) (12 months after treatment): (20.46%) | SAQ Question 1-7: Other limited, patients (%) (12 months after treatment): (3.29%) | SAQ Question 1-7: Severely limited, patients (%) (12 months after treatment): (12.95%) | SAQ Question 1-7: Slightly limited, patients (%) (12 months after treatment): (31.73%) | SAQ Question 1-8: Mildly limited, patients (%) (12 months after treatment): (24.72%) | SAQ Question 1-8: Moderately limited, patients (%) (12 months after treatment): (13.35%) | SAQ Question 1-8: Not limited, patients (%) (12 months after treatment): (13.64%) | SAQ Question 1-8: Other reasons, patients (%) (12 months after treatment): (3.95%) | SAQ Question 1-8: Severely limited, patients (%) (12 months after treatment): (16.89%) | SAQ Question 1-8: Slightly limited, patients (%) (12 months after treatment): (27.45%) | 8th question: Dissatisfied, patients (%) (Baseline): (0.92%) | 8th question: Highly satisfied, patients (%) (Baseline): (15.62%) | 8th question: Mostly dissatisfied, patients (%) (Baseline): (6.55%) | 8th question: Mostly satisfied, patients (%) (Baseline): (46.01%) | 8th question: Partly satisfied, patients (%) (Baseline): (30.90%) | 9th question: Few, patients (%) (Baseline): (21.02%) | 9th question: Mild, patients (%) (Baseline): (36.70%) | 9th question: Moderate, patients (%) (Baseline): (26.88%) | 9th question: Severe, patients (%) (Baseline): (3.62%) | 9th question: Uneffective, patients (%) (Baseline): (11.77%) | 10th question: Dissatisfied, patients (%) (Baseline): (25.90%) | 10th question: Highly satisfied, patients (%) (Baseline): (2.30%) | 10th question: Mostly dissatisfied, patients (%) (Baseline): (23.72%)
